What was measured:
[1] = system: mutated HEXA allele mRNA; conditions: increased from undetectable; cited from earlier work
[2] = system: NMD; experiment: Inhibition of NMD with a protein synthesis inhibitor; conditions: preliminary
Text: The major drawbacks to using the RNA-based cDNA assay are that the gene-specific RNA may not be produced in an easily collectable tissue and mutant RNA may be lost to a great extent by NMD. […] NMD can be minimized by pre-treating collected cells, such as white blood cells, with a protein synthesis inhibitor before RNA collection. This approach has been successful for the yeast gap repair p53 assay (Flaman et al., 1995; Andreutti-Zaugg et al., 1997) and may be extrapolated to in vivo studies by the administration of a protein synthesis inhibitor to rat pups prior to tissue collection. […] The problem of a gene-specific RNA not being produced in tail tissue may be reduced by extending the range of biopsy tissues collected from viable rats, e.g., WBC, liver, skin, etc. In the future as it becomes possible to cryopreserve rat sperm from F1 male rats of mutagenized fathers, their sperm can be frozen and a wide variety of organ-specific RNAs could also be collected and stored, along with DNA from tails or spleens. DNAs or RNAs from a large number of rats could be screened and the appropriate frozen sperm used for the mutant rat recovery via in vitro fertilization and implantation. […]

[3] = even at high doses; cited from earlier work
[4] = system: CYP1A1 RNA mutant allele; conditions: cell line with a CYP1A1 mutation; cited from earlier work
[5] = system: NMD of hMSH2 and hMLH1; conditions: treatment of freshly drawn whole blood; cited from earlier work

C[C@@H]1C[C@@H]([C@H](O)CC2CC(=O)NC(=O)C2)C(=O)[C@@H](C)C1 [cyclohexamide]
mRNA levels of the mutated HEXA allele [1]: 40 % of the wild-type allele

CC[C@H]1CN2CCc3cc(OC)c(OC)cc3[C@@H]2C[C@@H]1C[C@H]1NCCc2cc(OC)c(OC)cc21 [emetine]
inhibition of NMD [2]: preliminary success in inhibiting NMD

Gentamicin
short-term toxicity profile [3]: very low short-term toxicity profile even at high doses

COc1ccc(C[C@H](N)C(=O)N[C@H]2[C@@H](O)[C@H](n3cnc4c(N(C)C)ncnc43)O[C@@H]2CO)cc1 [puromycin]
steady-state level of CYP1A1 RNA mutant allele [4]: fully restored
NMD of hMSH2 and hMLH1 [5]: suppressed

Reference: patent US20070056052A1, “Methods of generating knock-out rodents” (priority 2001, published 2007)
